Test results taken from ChEMBL document CHEMBL1147786, “Synthesis and evaluation of a mechanism-based inhibitor of a 3-deoxy-D-arabino heptulosonate 7-phosphate synthase” (Bioorg Med Chem Lett, 2006).

Test: Inhibition of Escherichia coli DAH7P synthase

O=C(O)CN(C[C@H](O)[C@@H](O)[C@@H](O)COP(=O)(O)O)CP(=O)(O)O
IC50: 6.6 µM
